Measured values from PubChem BioAssay (NCI).
“And” between values parts separate entries of the source, which are not always exact repeats. Identical values can stand only once.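 How tested: cells in 96-well plates exposed to compound for 48 hours at five concentrations. Here, GI50 denotes the concentration required for 50% inhibition of growth. Definition used: TGI = concentration required for complete inhibition of growth.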

Columns and labels:
Assay in all cases: NCI anticancer screen, dose series, 48 h
UO-31 renal = tested on: UO-31 renal
A498 renal = tested on: A498 renal
SR leukemia = tested on: SR leukemia
OVCAR-4 ovarian = tested on: OVCAR-4 ovarian
HL-60(TB) leukemia = tested on: HL-60(TB) leukemia
NCI-H460 lung = tested on: NCI-H460 lung
HCT-116 colon = tested on: HCT-116 colon
NCI-H522 lung = tested on: NCI-H522 lung
HT29 colon = tested on: HT29 colon
SF-268 CNS = tested on: SF-268 CNS

Row | Structure (SMILES) | TGI (UO-31 renal) | TGI (A498 renal) | TGI (SR leukemia) | TGI (OVCAR-4 ovarian) | TGI (HL-60(TB) leukemia) | TGI (NCI-H460 lung) | TGI (HCT-116 colon) | TGI (NCI-H522 lung) | TGI (HT29 colon) | TGI (SF-268 CNS) | GI50 (UO-31 renal) | GI50 (A498 renal) | GI50 (SR leukemia) | GI50 (OVCAR-4 ovarian) | GI50 (HL-60(TB) leukemia) | GI50 (NCI-H460 lung) | GI50 (HCT-116 colon) | GI50 (NCI-H522 lung) [µM] | GI50 (HT29 colon) | GI50 (SF-268 CNS)
1 | CCOC(=O)Cc1csc(Nc2ccccc2[N+](=O)[O-])n1 | > 100 µM | > 100 µM | 61.3 µM | > 100 µM | > 100 µM | > 100 µM | > 100 µM | > 100 µM | > 100 µM | > 100 µM |  |  |  |  |  |  |  |  |  | 
2 | COc1c2occc2c(N)c2ccc(=O)oc12 | > 100 µM | > 100 µM | > 100 µM | > 100 µM | > 100 µM | > 100 µM | > 100 µM | > 100 µM | > 100 µM | > 100 µM |  |  |  |  |  |  |  |  |  | 
3 | COc1cc2c(cc1OCCCN1CCN(CCCOc3cc4c(cc3OC)C(=O)N3CC(F)(F)C[C@H]3C=N4)CC1)N=C[C@@H]1CC(F)(F)CN1C2=O | 25.7 µM | 5.95 µM | 11.4 µM | 33.7 µM | 5.06 µM | 15.6 µM | 22.4 µM | 3.86 µM | > 100 µM | 14.5 µM | 11.4 µM | 2.43 µM | 0.882 µM | 12.7 µM | 1.18 µM | 2.6 µM | 3.59 µM | 1.14 | 3.61 µM | 3.57 µM
4 | CSC[C@H](NC(=O)COc1cccc2cnccc12)C(=O)NC(Cc1ccccc1)C(O)C(=O)N1CSC[C@H]1C(=O)NC(C)(C)C (some centres not stated) | > 100 µM | > 100 µM | > 100 µM | > 100 µM | 91.4 µM | > 100 µM | > 100 µM | > 100 µM | > 100 µM | 63 µM |  |  |  |  |  |  |  |  |  | 
5 | Nc1c(C(=O)Nc2ccccn2)sc2nc3c(cc12)C(=O)CCC3 | > 100 µM | > 100 µM | > 100 µM | > 100 µM | 5.27 µM | > 100 µM | > 100 µM | > 100 µM | > 100 µM | > 100 µM | 9.45 µM | 0.345 µM | 2.75 µM | 6.26 µM | 0.689 µM | 0.596 µM | 0.52 µM | 0.595 | 0.47 µM | 8.26 µM
6 | Nc1nc(Cl)nc2c1ncn2C1CC(O)C(CO)O1 (configuration not stated) | 8.76 µM | 48.2 µM | > 100 µM | > 100 µM | 1.02 µM | > 100 µM | > 100 µM | > 100 µM | > 100 µM | > 95.7 µM |  |  | 5.66 µM |  |  |  |  |  |  | 
7 | CCSc1nc(N=Cc2ccccc2O)c2cn[nH]c2n1 | > 100 µM | 29.2 µM | > 100 µM | > 100 µM |  | > 100 µM | > 100 µM | > 100 µM | > 100 µM | 77.4 µM | 61.6 µM | 4.61 µM | 7.31 µM | 35 µM |  | 30.7 µM | 25.7 µM | 48.9 | 30.7 µM | 23.9 µM
8 | CCn1cc(-c2ccnc3[nH]c(-c4cccc(CN(C)C)c4)cc23)c(-c2ccc(NC(=O)N(C)C)cc2)n1 | 9.98 µM and > 10 µM | 0.749 µM and 3.28 µM | 6.58 µM and 3.28 µM | 37.1 µM and > 10 µM | 8.3 µM and > 10 µM | 13.7 µM and > 10 µM | 17.7 µM and > 10 µM | 20 µM and > 10 µM | 22.6 µM and > 10 µM | 20.9 µM and > 10 µM | 2.22 µM and 1.99 µM | 0.0673 µM and 0.519 µM | 0.122 µM and 0.031 µM | 0.479 µM and 3.41 µM | 1.46 µM and 0.863 µM | 0.209 µM and 0.109 µM | 0.322 µM and 0.455 µM |  | 1.89 µM and 1.4 µM | 3.03 µM and 2.07 µM
9 | CCN(CCNS(C)(=O)=O)c1ccc(N)c(C)c1 | 7.67 µM | 55.2 µM | 23.8 µM | 19.4 µM | 25.7 µM | 53.7 µM | 6.2 µM | 3.46 µM | 28.7 µM | 24.2 µM | 2.58 µM | 12.6 µM | 5.14 µM | 6.39 µM | 7.01 µM | 23.2 µM | 2.5 µM | 2 | 6.16 µM | 11.3 µM
10 | O=c1cccc(C#CC#C[C@@H]2O[C@H]2CO)o1 | 2.88 µM | 33.3 µM | > 100 µM |  | > 100 µM | 4.63 µM |  |  | 2.53 µM | 3.91 µM | 1.06 µM | 17.7 µM | 0.621 µM |  | 3.12 µM | 2.03 µM | 0.274 µM | 0.814 | 0.429 µM | 1.78 µM
11 | CN(C)CCN1CCC(Cc2ccccc2)CC1 | > 80 µM | > 80 µM | > 80 µM | > 80 µM | > 80 µM | > 80 µM | > 80 µM | > 80 µM | > 80 µM | > 80 µM | > 80 µM | 47.2 µM | 67.3 µM | > 80 µM | 26.8 µM | > 80 µM | > 80 µM | > 80 | > 80 µM | > 80 µM
12 | CCN(Cc1c(F)cccc1OC)c1ccc(CO)c(Cl)c1 | 48.8 µM | 0.106 µM | 55.5 µM | 13 µM | 43.3 µM | 11.7 µM | > 37.2 µM | 29.6 µM | 18.9 µM | > 63.5 µM | 14.9 µM | 0.0325 µM | 18.3 µM | 0.216 µM | 13.2 µM | 0.201 µM | 0.0546 µM | 13 | 1.47 µM | 23.2 µM
13 | CCOc1ccc(OCC(=O)O)c2c1CCCC2=O | > 100 µM | > 100 µM | > 100 µM | > 100 µM | > 100 µM | > 100 µM |  | > 100 µM | > 100 µM | > 100 µM |  |  |  |  |  |  |  |  |  | 
14 | O=C1C/C(Br)=C\c2ccccc2-c2ccccc21 | 6.87 µM | 22.5 µM | 2.73 µM | 7.88 µM | 5.7 µM | 10.4 µM | 3.71 µM | 1.59 µM | 4.72 µM | 8.39 µM |  |  |  |  |  |  |  |  |  | 
15 | Cc1cc(C(=O)CSC(=S)SC(C)(C)C)ccc1Cl | 42.6 µM | 29.8 µM | 46.9 µM | > 100 µM | 44.1 µM | 28.3 µM | 42.3 µM | 30.3 µM | 69 µM | 33.1 µM |  |  |  |  |  |  |  |  |  | 
16 | COc1ccc(-c2c(C#N)c(N3CCOCC3)nc3[nH]c(=S)[nH]c(=S)c23)cc1OC | > 100 µM | > 100 µM | > 100 µM | > 100 µM | > 100 µM | > 100 µM | > 100 µM | > 100 µM |  | > 100 µM | 82.1 µM | > 100 µM | 11.5 µM | 76.6 µM | 36.2 µM | 27.7 µM | 27.8 µM | > 100 |  | 31.6 µM
17 | C/C(=N\NC(N)=O)c1sc(-c2nc(C)c(/C(C)=N/NC(N)=O)s2)nc1C | > 100 µM | > 100 µM | 43.5 µM | > 100 µM | > 100 µM | > 100 µM |  | > 100 µM | > 100 µM | > 100 µM |  |  |  |  |  |  |  |  |  | 
18 | CCCCNCCCNCCCNC(=O)c1csc(-c2csc(CCNC(=O)C(NC(=O)C(C)C(O)C(C)NC(=O)C(NC(=O)c3nc(C(CC(N)=O)NCC(N)C(N)=O)nc(N)c3C)C(OC3OC(CO)C(O)C(O)C3OC3OC(CO)C(O)C(OC(N)=O)C3O)c3cnc[nH]3)C(C)O)n2)n1 (configuration not stated) | 15.8 µM and 3.81 µM | 50 µM and 28.1 µM | 50 µM and > 100 µM |  | 50 µM and > 100 µM | 5.22 µM and 13 µM | 50 µM and 14.2 µM | 7.96 µM and 10.1 µM | 50 µM and > 100 µM | 50 µM and 15.2 µM |  | 1.25 µM | 7.28 µM | 0.459 µM | 3.4 µM | 0.0396 µM | 0.427 µM |  | 1.73 µM | 3.16 µM
19 | C[C@H](CCOc1cccc(CC(=O)O)c1)N(Cc1cccc(C(F)(F)F)c1Cl)CC(c1ccccc1)c1ccccc1 | 14.7 µM |  | 51.6 µM | 21.9 µM | 24.6 µM | 13.6 µM | 13.6 µM | 22.3 µM | 22.9 µM | 20.3 µM | 2.36 µM |  | 5.51 µM | 5.26 µM | 5.58 µM | 3.9 µM | 3.68 µM | 4.51 | 4.43 µM | 5.28 µM
20 | COc1c(C)c(OCC=C(C)C)cc(CO)c1CO |  | > 100 µM | > 100 µM | > 100 µM | > 100 µM | > 100 µM | > 100 µM | > 100 µM | > 100 µM | > 100 µM |  |  |  |  |  |  |  |  |  | 
21 | COCOCCC#CCO | > 100 µM | > 100 µM | > 100 µM |  | > 100 µM | > 100 µM | > 100 µM | > 100 µM | > 100 µM | > 100 µM |  |  |  |  |  |  |  |  |  | 
22 | CO[C@@H]1CC[C@]2(C)OC[C@H](C)[C@@H]3C[C@@H](C)[C@@H](OC(C)=O)[C@@H]4[C@H]3[C@@H]2O[C@H]4C[C@@]1(C)O | > 100 µM | > 100 µM | > 100 µM | > 100 µM | > 100 µM | > 100 µM |  | > 100 µM | > 100 µM | > 100 µM | > 100 µM | > 100 µM | > 100 µM | > 100 µM | > 100 µM | > 100 µM |  | > 100 | > 100 µM | > 100 µM
23 | CN(Cc1cnc2nc(N)nc(N)c2n1)c1ccc(C(=O)N[C@@H](CCS(=O)(=O)O)C(=O)O)cc1 | > 100 µM | > 100 µM | > 100 µM | > 100 µM |  | > 100 µM |  | > 100 µM | > 100 µM | > 100 µM |  |  |  |  |  |  |  |  |  | 
24 | CC(=O)N/C(=C\c1ccccc1/C=C(\NC(C)=O)c1nc2cc(C)c(C)cc2[nH]1)c1nc2cc(C)c(C)cc2[nH]1 | 12.5 µM | > 100 µM | > 100 µM |  |  | 97.9 µM | 88.2 µM | 24 µM | > 100 µM | > 100 µM |  |  |  |  |  |  |  |  |  | 
